Measurements as given in patent US12338203B2 (TAISHO PHARMACEUTICAL CO., LTD., priority 2019, dated 2025).

Target: T1, human LPAR1 (Homo sapiens, UniProt Q92633)
T1 construct: expressed in transfected cells
Experiment: Test Example 1: antagonism against response of LPA-induced increase in intracellular Ca2+ concentration in RH7777 cells stably expressing human LPAR1
Assay type: cell-based
Settings: RH7777 cells stably expressing human LPAR1; Fluo-4 fluorescence, FDSS6000; read-out: IC50 value (concentration producing 50% antagonism against response of LPA-induced increase in intracellular Ca2+ concentration) (converted)
How it was run: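 Ca2+ flux read at 540 nm emission (480 nm excitation) after LPA addition to human LPAR1-expressing RH7777 cells exposed to compound for 30 min, 37 °C, pH 7.4 HEPES-buffered HBSS. Response relative to no-compound control after basal subtraction; IC50 fitted from concentration–response.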

T1 sequence (Q92633 whole entry): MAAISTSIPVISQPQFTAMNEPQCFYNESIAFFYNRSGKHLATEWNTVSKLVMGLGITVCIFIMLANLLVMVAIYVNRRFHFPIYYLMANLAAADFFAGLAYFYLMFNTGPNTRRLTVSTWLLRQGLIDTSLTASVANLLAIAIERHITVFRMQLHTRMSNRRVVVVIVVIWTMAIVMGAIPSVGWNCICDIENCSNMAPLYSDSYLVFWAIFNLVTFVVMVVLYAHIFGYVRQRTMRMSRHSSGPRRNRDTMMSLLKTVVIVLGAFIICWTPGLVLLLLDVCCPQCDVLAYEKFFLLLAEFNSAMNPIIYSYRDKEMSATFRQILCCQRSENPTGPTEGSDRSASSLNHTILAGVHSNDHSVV

Row | IC50 [nM] | Structure (SMILES)
1 | 1.04 | CCOc1c(C(C)=O)ccc([C@@H](C)N(CCOCc2ccccc2)C(=O)NC2(C(=O)O)CC(F)(F)C2)c1C [Example 4-106]
2 | 1.72 | CCOc1cc([C@@H](C)N(CCCCc2ccccc2)C(=O)NC2(CC(=O)O)CC2)cc(OCC)c1C(C)=O [Example 1-145]
3 | 3.66 | CCOC1CC(NC(=O)N(CCOCc2ccccc2)C(C)c2cc(OC)c(C3CC3)c(OC)c2)(C(=O)O)C1 (stereo not drawn) [Example 5-162]
4 | 3.13 | CCOc1cc([C@@H](C)N(CCCCc2ccccc2)C(=O)NC2CCC2C(=O)O)cc(OCC)c1C(C)=O (stereo partly drawn) [Example 1-126]
5 | 1.23 | CCOc1cc([C@@H](C)N(CCO[C@@H](C)c2ccccc2)C(=O)NC2(C(=O)O)CCC2)cc(OCC)c1C1CC1 [Example 4-115]
6 | 7.96 | CCOc1cc(C(C)N(CCCCc2ccccc2)C(=O)NC2(C(=O)O)CC(F)(F)C2)cc(OCC)c1C(O)C(F)(F)F (stereo not drawn) [Example 1-52]
7 | 1.55 | CCOc1cc([C@@H](C)N(CCO[C@H](C)c2ccccc2)C(=O)NC2(C(=O)O)CC(F)(F)C2)cc(OCC)c1C1CC1 [Example 4-150]
8 | 74.5 | COc1cc(C(CO)N(CCCCc2ccccc2)C(=O)NC2(C(=O)O)CCCC2)cc(OC)c1C (stereo not drawn) [Example 3-7]
9 | 4.39 | CCOc1c(C(C)=O)ccc([C@@H](C)N(CCO[C@H](C)c2ccccc2)C(=O)NC2(C(=O)O)CC(OCC)C2)c1C (stereo partly drawn) [Example 4-158]
10 | 2.47 | CCOc1cc([C@@H](C)N(CCCCc2ccccc2)C(=O)NC2(C(=O)O)CC(F)(F)C2)cc(OCC)c1CC [Example 1-48]
11 | 3.62 | CCOc1cc(C(C)N(CCCCc2ccccc2)C(=O)NC2(C(=O)O)CC(F)(F)C2)ccc1C(C)=O (stereo not drawn) [Example 5-8]
12 | 3.37 | COc1cc(C(C)N(CCO[C@@H](C)c2ccccc2)C(=O)NC2(C(=O)O)CC(F)(F)C2)c(C)c(OC)c1C1CC1 (stereo partly drawn) [Example 5-150]
13 | 22.1 | CCOc1cc([C@@H](C)N(CCC(F)(F)Cc2ccccc2)C(=O)NC2(C(=O)O)CCOCC2)c(Cl)c(OCC)c1C(C)=O [Example 5-43]
14 | 2.04 | CCOc1cc([C@@H](C)N(CCO[C@@H](C)c2ccccc2)C(=O)NC2(C(=O)O)CC(F)(F)C2)c(Cl)c(OCC)c1C(C)=O [Example 5-32]
15 | 6.15 | CCOc1cc(C(C)N(CCCCc2ccccc2)C(=O)NC2(C(=O)O)CC(F)(F)C2)cc(OCC)c1C#N (stereo not drawn) [Example 1-41]
16 | 1.99 | CCOc1cc(C(C)N(CCCCc2ccccc2)C(=O)NC2(C(=O)O)CC(F)(F)C2)cc(OCC)c1C(C)O (stereo not drawn) [Example 1-34]
17 | 52.1 | CCOc1cc(C(C)N(CCCCc2ccccc2)C(=O)NC2(P(=O)(O)O)CCCC2)cc(OCC)c1C (single isomer, unassigned) [Example 8-1, [1-({[1-(3,5-Diethoxy-4-Methylphenyl)Ethyl](4-Phenylbutyl) Carbamoyl}Amino)Cyclopentyl]Phosphonic Acid]
18 | 2.53 | CCOc1cc(C(C)N(CCOCc2ccccc2)C(=O)NC2(C(=O)O)CC2)c(Cl)c(OCC)c1C(C)=O (stereo not drawn) [Example 5-184]
19 | 4.85 | CCOC1CC(NC(=O)N(CCOCc2ccccc2)[C@H](C)c2cc(OC)c(C)c(OC)c2)(C(=O)O)C1 (stereo partly drawn) [Example 4-165]
20 | 12.2 | CCNc1cc(C(C)N(CCCCc2ccccc2)C(=O)NC2(C(=O)O)CCS(=O)(=O)CC2)cc(OCC)c1C(C)=O (stereo not drawn) [Example 5-105]
21 | 10.3 | CCOc1cc([C@@H](C)N(CCC(F)(F)Cc2ccccc2)C(=O)NC2(C(=O)O)CC(OC)C2)c(Cl)c(OCC)c1C(C)=O (stereo partly drawn) [Example 5-41]
22 | 54.2 | COc1cc(C(C)N(CCOCc2ccccc2)C(=O)NC2(C(=O)O)CCOCC2)cc(OC)c1C(C)=O (stereo not drawn) [Example 5-172]
23 | 10.8 | COc1cc(C(C)N(CCOCc2ccccc2)C(=O)NC2(C(=O)O)CCC2)cc(OC)c1C1CC1 (stereo not drawn) [Example 5-131]

Row | IC50 [nM] | Structure (SMILES)
24 | 5690 | COc1cc(CN(CCCCc2ccccc2)C(=O)NCC(C(=O)O)C(C)C)cc(OC)c1C (stereo not drawn) [Example 1-14]
25 | 32.9 | CCOc1cc(C(C)N(CCCCc2ccccc2)C(=O)NC2CC(C(=O)O)C2)c(Cl)c(OCC)c1C(C)=O (stereo not drawn) [Example 5-45]
26 | 2.07 | CCOc1cc(C(C)N(CCOC(C)c2ccccc2)C(=O)NC2(C(=O)O)CCC2)c(Cl)c(OCC)c1C(C)=O (stereo not drawn) [Example 5-195]
27 | 132 | Cc1ccc(C(C)N(CCCCc2ccccc2)C(=O)NC2(C(=O)O)CC(F)(F)C2)cc1 (stereo not drawn) [Example 5-7]
28 | 2.9 | CCOc1cc(C(C)N(CCCCc2ccccc2)C(=O)N[C@]2(C(=O)O)C[C@@H](OC)C2)c(C)c(OCC)c1C(C)=O (stereo partly drawn) [Example 5-198]
29 | 17.1 | CC(c1cc(Cl)cc(Cl)c1)N(CCCCc1ccccc1)C(=O)NC1(C(=O)O)CC(F)(F)C1 (stereo not drawn) [Example 5-21]
30 | 2.56 | CCOc1cc(C(C)N(CCO[C@@H](C)c2ccccc2)C(=O)NC2(C(=O)O)CC(OCC)C2)c(Cl)c(OCC)c1C1CC1 (stereo partly drawn) [Example 5-216]
31 | 1.45 | CCOc1cc(C(C)N(CCOCc2ccccc2)C(=O)NC2(C(=O)O)CCC2)c(C)c(OCC)c1C(C)=O (stereo not drawn) [Example 5-191]
32 | 5640 | CCOc1cc(C(C)N(CCCCc2ccccc2)C(=O)NC2(C(=O)O)CC(F)(F)C2)cc(OCC)c1C(=O)O (stereo not drawn) [Example 1-39]
33 | 2.36 | COc1cc(C(C)N(CCOCc2ccccc2)C(=O)NC2(C(=O)O)CC(OC)C2)cc(OC)c1C1CC1 (stereo not drawn) [Example 5-152]
34 | 10.5 | CCOc1cc([C@@H](C)N(CC(C)CCc2ccccc2)C(=O)NC2(C(=O)O)CC(F)(F)C2)cc(OCC)c1C (stereo partly drawn) [Example 4-38]
35 | 33.7 | CCOc1c(C(C)=O)ccc([C@@H](C)N(CCCCc2ccccc2)C(=O)NC2CCC2C(=O)O)c1C (stereo partly drawn) [Example 1-127]
36 | 3.52 | CCOc1cc(C(C)N(CCCCc2ccccc2)C(=O)NC2(C(=O)O)CC(F)(F)C2)cc(OCC)c1C(F)F (stereo not drawn) [Example 1-51]
37 | 4.02 | CCOc1cc([C@@H](C)N(CCO[C@@H](C)c2cccc(Cl)c2)C(=O)NC2(C(=O)O)CC(F)(F)C2)c(Cl)c(OCC)c1C(C)=O [Example 4-177]
38 | 3.94 | CCO[C@H]1C[C@@](NC(=O)N(CCOCc2ccccc2)C(C)c2cc(OC)c(C(C)=O)c(OC)c2Cl)(C(=O)O)C1 (stereo partly drawn) [Example 5-127]
39 | 2840 | CCOC(=O)C1(NC(=O)N(CCO[C@@H](C)c2ccccc2)C(C)c2cc(OCC)c(C(C)=O)c(OCC)c2Cl)CC1 (stereo partly drawn) [Example 6-8]
40 | 3.4 | COc1cc(C(C)N(CCO[C@@H](C)c2ccccc2)C(=O)NC2(C(=O)O)CC(F)(F)C2)cc(OC)c1C1CC1 (stereo partly drawn) [Example 5-148]
41 | 2.15 | CCOc1cc(C(C)N(CCOC(C)c2ccccc2)C(=O)NC2(C(=O)O)CCC2)c(C)c(OCC)c1C (stereo not drawn) [Example 5-194]
42 | 43.4 | CCOc1cc([C@@H](C)N(CCC(F)(F)Cc2ccccc2)C(=O)NC2(C(=O)O)CCOCC2)c(Cl)c(OCC)c1C(C)O (stereo partly drawn) [Example 5-67, 4-{[{(1R)-1-[2-Chloro-3,5-Diethoxy-4-(1-Hydroxyethyl)Phenyl]Ethyl}(3,3-Difluoro-4-Phenylbutyl) Carbamoyl]Amino}Oxane-4-Carboxylic Acid]
43 | 8.95 | CCOc1c(C(C)=O)ccc([C@@H](C)N(CCO[C@@H](C)c2ccccc2)C(=O)NC2(C(=O)O)CC2)c1C [Example 4-113]
44 | 1.09 | CCOc1cc([C@@H](C)N(CCCCc2ccccc2)C(=O)NC2(C(=O)O)CC2)cc(OCC)c1C1CC1 [Example 1-18]
45 | 1.11 | COc1cc(C(C)N(CCOCc2ccccc2)C(=O)NC2(C(=O)O)CC(F)(F)C2)c(Cl)c(OC)c1C1CC1 (stereo not drawn) [Example 5-144]
